Data taken from publication PMC12446476 (Nature Communications, 2025).

Tests used:
[1] = system: N. gonorrhoeae; experiment: In vitro time-kill assay; format: cell-based, Neisseria gonorrhoeae; details: for mean time to reach bactericidal activity: ten isolates
Source text: The 2024 WHO N. gonorrhoeae reference strains were used for quality control. Only whole MIC doubling dilutions are reported. Clinical breakpoints or the epidemiological cutoff (ECOFF, to indicate azithromycin resistance) from EUCAST (v14.0, https://www.eucast.org/clinical_breakpoints) were used to classify isolates as antimicrobial susceptible or resistant. […] Two times the standard inoculum defined by CLSI was used to establish consistent growth in untreated control samples for some strains. In vitro time-kill assays were performed according to CLSI guidelines[65] using Columbia Broth (BD Difco) supplemented with 1% IsoVitaleX Enrichment (BD). Viable bacterial counts were generated by plating 10-fold serially diluted samples on GC agar plates containing 1% IsoVitaleX Enrichment (BD).

[2] = target: recombinant NgFabI protein (Neisseria gonorrhoeae, UniProt A0ACH0F547); experiment: biochemical
Method: FabI activity was monitored by measuring NADH consumption. […] To initiate reactions, 50 µM NADH was added, and absorbance was monitored at 340 nm every 12 s for a total of 40 min using a Spectramax Plus 384 plate reader (Molecular Devices) at a controlled temperature of 30 °C. Data were analysed using the XLfit Microsoft Excel plugin (version 5.5). IC50 values were determined using a logistic sigmoid curve-fitting of the inhibitor dose response curves.

recombinant NgFabI protein, sequence (A0ACH0F547 entry or part of it): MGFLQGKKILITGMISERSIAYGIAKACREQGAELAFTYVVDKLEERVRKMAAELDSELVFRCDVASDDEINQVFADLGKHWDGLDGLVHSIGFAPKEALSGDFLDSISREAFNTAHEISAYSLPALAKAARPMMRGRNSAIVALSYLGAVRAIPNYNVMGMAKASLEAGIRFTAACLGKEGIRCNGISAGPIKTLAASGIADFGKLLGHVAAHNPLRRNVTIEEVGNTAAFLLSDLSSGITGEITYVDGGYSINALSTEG

## Cc1c(CN(C)C(=O)/C=C/c2cnc3c(c2)N[C@H](C)[C@H](O)C(=O)N3)oc2ccccc12 [Debio 1453]
[1]; 2× MIC
  mean time to reach bactericidal activity: 10 h
[1]; 4× MIC
  mean time to reach bactericidal activity: 8.5 h
[1]; 8× MIC
  mean time to reach bactericidal activity: 8 h
[1]; 16× MIC
  mean time to reach bactericidal activity: 8 h
[1]; 6804, 2X MIC, 0 hr
  Log10CFU/ml (time kill): 6.11 Log10CFU/ml
[1]; 6804, 2X MIC, 1 hr
  Log10CFU/ml (time kill): 6.05 Log10CFU/ml
[1]; 6804, 2X MIC, 3 hr
  Log10CFU/ml (time kill): 5.70 Log10CFU/ml
[1]; 6804, 2X MIC, 6 hr
  Log10CFU/ml (time kill): 5.13 Log10CFU/ml
[1]; 6804, 2X MIC, 10 hr
  Log10CFU/ml (time kill): 4.59 Log10CFU/ml
[1]; 6804, 2X MIC, 24 hr
  Log10CFU/ml (time kill): 1.95 Log10CFU/ml
[1]; 6804, 4X MIC, 0 hr
  Log10CFU/ml (time kill): 6.04 Log10CFU/ml
[1]; 6804, 4X MIC, 1 hr
  Log10CFU/ml (time kill): 6.04 Log10CFU/ml
[1]; 6804, 4X MIC, 3 hr
  Log10CFU/ml (time kill): 5.43 Log10CFU/ml
[1]; 6804, 4X MIC, 6 hr
  Log10CFU/ml (time kill): 4.53 Log10CFU/ml
[1]; 6804, 4X MIC, 10 hr
  Log10CFU/ml (time kill): 3.72 Log10CFU/ml
[1]; 6804, 4X MIC, 24 hr
  Log10CFU/ml (time kill): 1.95 Log10CFU/ml
[1]; 6804, 8X MIC, 0 hr
  Log10CFU/ml (time kill): 6.21 Log10CFU/ml
[1]; 6804, 8X MIC, 1 hr
  Log10CFU/ml (time kill): 6.03 Log10CFU/ml
[1]; 6804, 8X MIC, 3 hr
  Log10CFU/ml (time kill): 5.13 Log10CFU/ml
[1]; 6804, 8X MIC, 6 hr
  Log10CFU/ml (time kill): 4.30 Log10CFU/ml
[1]; 6804, 8X MIC, 10 hr
  Log10CFU/ml (time kill): 3.41 Log10CFU/ml
[1]; 6804, 8X MIC, 24 hr
  Log10CFU/ml (time kill): 1.95 Log10CFU/ml
[1]; 6804, 16X MIC, 0 hr
  Log10CFU/ml (time kill): 6.00 Log10CFU/ml
[1]; 6804, 16X MIC, 1 hr
  Log10CFU/ml (time kill): 6.07 Log10CFU/ml
[1]; 6804, 16X MIC, 3 hr
  Log10CFU/ml (time kill): 5.20 Log10CFU/ml
[1]; 6804, 16X MIC, 6 hr
  Log10CFU/ml (time kill): 4.67 Log10CFU/ml
[1]; 6804, 16X MIC, 10 hr
  Log10CFU/ml (time kill): 3.70 Log10CFU/ml
[1]; 6804, 16X MIC, 24 hr
  Log10CFU/ml (time kill): 1.95 Log10CFU/ml
[1]; AR Bank0175, 2X MIC, 0 hr
  Log10CFU/ml (time kill): 6.11 Log10CFU/ml
[1]; AR Bank0175, 2X MIC, 1 hr
  Log10CFU/ml (time kill): 5.92 Log10CFU/ml
[1]; AR Bank0175, 2X MIC, 3 hr
  Log10CFU/ml (time kill): 5.61 Log10CFU/ml
[1]; AR Bank0175, 2X MIC, 6 hr
  Log10CFU/ml (time kill): 4.46 Log10CFU/ml
[1]; AR Bank0175, 2X MIC, 10 hr
  Log10CFU/ml (time kill): 3.38 Log10CFU/ml
[1]; AR Bank0175, 2X MIC, 24 hr
  Log10CFU/ml (time kill): 1.95 Log10CFU/ml
[1]; AR Bank0175, 4X MIC, 0 hr
  Log10CFU/ml (time kill): 6.15 Log10CFU/ml
[1]; AR Bank0175, 4X MIC, 1 hr
  Log10CFU/ml (time kill): 5.59 Log10CFU/ml
[1]; AR Bank0175, 4X MIC, 3 hr
  Log10CFU/ml (time kill): 5.22 Log10CFU/ml
[1]; AR Bank0175, 4X MIC, 6 hr
  Log10CFU/ml (time kill): 4.45 Log10CFU/ml
[1]; AR Bank0175, 4X MIC, 10 hr
  Log10CFU/ml (time kill): 3.28 Log10CFU/ml
[1]; AR Bank0175, 4X MIC, 24 hr
  Log10CFU/ml (time kill): 1.95 Log10CFU/ml
[1]; AR Bank0175, 8X MIC, 0 hr
  Log10CFU/ml (time kill): 5.85 Log10CFU/ml
[1]; AR Bank0175, 8X MIC, 1 hr
  Log10CFU/ml (time kill): 5.40 Log10CFU/ml
[1]; AR Bank0175, 8X MIC, 3 hr
  Log10CFU/ml (time kill): 5.08 Log10CFU/ml
[1]; AR Bank0175, 8X MIC, 6 hr
  Log10CFU/ml (time kill): 3.85 Log10CFU/ml
[1]; AR Bank0175, 8X MIC, 10 hr
  Log10CFU/ml (time kill): 2.95 Log10CFU/ml
[1]; AR Bank0175, 8X MIC, 24 hr
  Log10CFU/ml (time kill): 1.95 Log10CFU/ml
[1]; AR Bank0175, 16X MIC, 0 hr
  Log10CFU/ml (time kill): 6.08 Log10CFU/ml
[1]; AR Bank0175, 16X MIC, 1 hr
  Log10CFU/ml (time kill): 5.41 Log10CFU/ml
[1]; AR Bank0175, 16X MIC, 3 hr
  Log10CFU/ml (time kill): 4.92 Log10CFU/ml
[1]; AR Bank0175, 16X MIC, 6 hr
  Log10CFU/ml (time kill): 3.81 Log10CFU/ml
[1]; AR Bank0175, 16X MIC, 10 hr
  Log10CFU/ml (time kill): 3.23 Log10CFU/ml
[1]; AR Bank0175, 16X MIC, 24 hr
  Log10CFU/ml (time kill): 1.95 Log10CFU/ml
[1]; AR Bank0179, 2X MIC, 0 hr
  Log10CFU/ml (time kill): 5.66 Log10CFU/ml
[1]; AR Bank0179, 2X MIC, 1 hr
  Log10CFU/ml (time kill): 5.63 Log10CFU/ml
[1]; AR Bank0179, 2X MIC, 3 hr
  Log10CFU/ml (time kill): 5.09 Log10CFU/ml
[1]; AR Bank0179, 2X MIC, 6 hr
  Log10CFU/ml (time kill): 4.63 Log10CFU/ml
[1]; AR Bank0179, 2X MIC, 10 hr
  Log10CFU/ml (time kill): 2.00 Log10CFU/ml
[1]; AR Bank0179, 2X MIC, 24 hr
  Log10CFU/ml (time kill): 1.95 Log10CFU/ml
[1]; AR Bank0179, 4X MIC, 0 hr
  Log10CFU/ml (time kill): 5.46 Log10CFU/ml
[1]; AR Bank0179, 4X MIC, 1 hr
  Log10CFU/ml (time kill): 5.53 Log10CFU/ml
[1]; AR Bank0179, 4X MIC, 3 hr
  Log10CFU/ml (time kill): 4.84 Log10CFU/ml
[1]; AR Bank0179, 4X MIC, 6 hr
  Log10CFU/ml (time kill): 3.98 Log10CFU/ml
[1]; AR Bank0179, 4X MIC, 10 hr
  Log10CFU/ml (time kill): 1.95 Log10CFU/ml
[1]; AR Bank0179, 4X MIC, 24 hr
  Log10CFU/ml (time kill): 1.95 Log10CFU/ml
[1]; AR Bank0179, 8X MIC, 0 hr
  Log10CFU/ml (time kill): 5.74 Log10CFU/ml
[1]; AR Bank0179, 8X MIC, 1 hr
  Log10CFU/ml (time kill): 5.30 Log10CFU/ml
[1]; AR Bank0179, 8X MIC, 3 hr
  Log10CFU/ml (time kill): 4.73 Log10CFU/ml
[1]; AR Bank0179, 8X MIC, 6 hr
  Log10CFU/ml (time kill): 3.88 Log10CFU/ml
[1]; AR Bank0179, 8X MIC, 10 hr
  Log10CFU/ml (time kill): 1.95 Log10CFU/ml
[1]; AR Bank0179, 8X MIC, 24 hr
  Log10CFU/ml (time kill): 1.95 Log10CFU/ml
[1]; AR Bank0179, 16X MIC, 0 hr
  Log10CFU/ml (time kill): 5.69 Log10CFU/ml
[1]; AR Bank0179, 16X MIC, 1 hr
  Log10CFU/ml (time kill): 5.23 Log10CFU/ml
[1]; AR Bank0179, 16X MIC, 3 hr
  Log10CFU/ml (time kill): 4.75 Log10CFU/ml
[1]; AR Bank0179, 16X MIC, 6 hr
  Log10CFU/ml (time kill): 3.67 Log10CFU/ml
[1]; AR Bank0179, 16X MIC, 10 hr
  Log10CFU/ml (time kill): 1.95 Log10CFU/ml
[1]; AR Bank0179, 16X MIC, 24 hr
  Log10CFU/ml (time kill): 1.95 Log10CFU/ml
[1]; ATCC 49226, 2X MIC, 0 hr
  Log10CFU/ml (time kill): 6.10 Log10CFU/ml
[1]; ATCC 49226, 2X MIC, 1 hr
  Log10CFU/ml (time kill): 5.92 Log10CFU/ml
[1]; ATCC 49226, 2X MIC, 3 hr
  Log10CFU/ml (time kill): 5.64 Log10CFU/ml
[1]; ATCC 49226, 2X MIC, 6 hr
  Log10CFU/ml (time kill): 4.51 Log10CFU/ml
[1]; ATCC 49226, 2X MIC, 10 hr
  Log10CFU/ml (time kill): 2.60 Log10CFU/ml
[1]; ATCC 49226, 2X MIC, 24 hr
  Log10CFU/ml (time kill): 1.95 Log10CFU/ml
[1]; ATCC 49226, 4X MIC, 0 hr
  Log10CFU/ml (time kill): 6.07 Log10CFU/ml
[1]; WHO V, 2X MIC, 0 hr
  Log10CFU/ml (time kill): 5.66 Log10CFU/ml
[1]; WHO V, 2X MIC, 1 hr
  Log10CFU/ml (time kill): 5.58 Log10CFU/ml
[1]; WHO V, 2X MIC, 3 hr
  Log10CFU/ml (time kill): 4.90 Log10CFU/ml
[1]; WHO V, 2X MIC, 6 hr
  Log10CFU/ml (time kill): 4.14 Log10CFU/ml
[1]; WHO V, 2X MIC, 10 hr
  Log10CFU/ml (time kill): 3.53 Log10CFU/ml
[1]; WHO V, 2X MIC, 24 hr
  Log10CFU/ml (time kill): 1.95 Log10CFU/ml
[1]; WHO V, 4X MIC, 0 hr
  Log10CFU/ml (time kill): 5.59 Log10CFU/ml
[1]; WHO V, 4X MIC, 1 hr
  Log10CFU/ml (time kill): 5.34 Log10CFU/ml
[1]; WHO V, 4X MIC, 3 hr
  Log10CFU/ml (time kill): 4.37 Log10CFU/ml
[1]; WHO V, 4X MIC, 6 hr
  Log10CFU/ml (time kill): 4.03 Log10CFU/ml
[1]; WHO V, 4X MIC, 10 hr
  Log10CFU/ml (time kill): 2.00 Log10CFU/ml
[1]; WHO V, 4X MIC, 24 hr
  Log10CFU/ml (time kill): 1.95 Log10CFU/ml
[1]; WHO V, 8X MIC, 0 hr
  Log10CFU/ml (time kill): 5.60 Log10CFU/ml
[1]; WHO V, 8X MIC, 1 hr
  Log10CFU/ml (time kill): 4.90 Log10CFU/ml
[1]; WHO V, 8X MIC, 3 hr
  Log10CFU/ml (time kill): 4.34 Log10CFU/ml
[1]; WHO V, 8X MIC, 6 hr
  Log10CFU/ml (time kill): 4.03 Log10CFU/ml
[1]; WHO V, 8X MIC, 10 hr
  Log10CFU/ml (time kill): 1.95 Log10CFU/ml
[1]; WHO V, 8X MIC, 24 hr
  Log10CFU/ml (time kill): 1.95 Log10CFU/ml
[1]; WHO V, 16X MIC, 0 hr
  Log10CFU/ml (time kill): 5.81 Log10CFU/ml
[1]; WHO V, 16X MIC, 1 hr
  Log10CFU/ml (time kill): 5.00 Log10CFU/ml
[1]; WHO V, 16X MIC, 3 hr
  Log10CFU/ml (time kill): 4.27 Log10CFU/ml
[1]; within 24 h, all concentrations tested, as low as 2× MIC, 10 isolates
  reduction in viable CFU counts: ≥ 3 log10
[2]
  IC50: 0.6 nM
